Measurements: US7138361B2, “Herbicidal heterocycles” (E. I. du Pont de Nemours and Company, priority 2000, dated 2006)

Tests used:
Format in all cases: in vivo
[1] = tested on: Nightshade; test: Test C preemergence
Source text: (§1) Seeds of plant species selected from bermudagrass (Cynodon dactylon), Surinam grass (Brachiaria decumbens), cocklebur (Xanthium strumarium), corn (Zea mays), crabgrass (Digitaria sanguinalis), woolly cupgrass (Eriochloa villosa), giant foxtail (Setaria faberii), goosegrass (Eleusine indica), johnsongrass (Sorghum halepense), kochia (Kochia scoparia), lambsquarters (Chenopodium album), morningglory (Ipomoea hederacea), yellow nutsedge (Cyperus esculentus), pigweed (Amaranthus retroflexus), common ragweed (Ambrosia elatior), soybean (Glycine max) and velvetleaf (Abutilon theophrasti) were planted and treated preemergence with test chemicals formulated in a non-phytotoxic solvent mixture which included a surfactant.
(§2) At the same time, plants selected from these crop and weed species and also winter barley (Hordeum vulgare), blackgrass (Alopecurus myosuroides), canary grass (Phalaris minor), chickweed (Stellaria media), downy brome (Bromus tectorum), green foxtail (Setaria viridis), Italian ryegrass (Lolium multiflorum), wheat (Triticum aestivum), wild oat (Avena fatua) and windgrass (Apera spica-venti) were treated with postemergence applications of some of the test chemicals formulated in the same manner. Plants ranged in height from 2 to 18 cm (1- to 4-leaf stage) for postemergence treatments. Plant species in the flooded paddy test consisted of rice (Oryza saliva), smallflower flatsedge (Cyperus difformis), duck salad (Heteranthera limosa) and barnyardgrass (Echinochloa crus-galli) grown to the 2-leaf stage for testing. Treated plants and controls were maintained in a greenhouse for 12 to 14 days, after which time all species were compared to controls and visually evaluated. Plant response ratings, summarized in Table C, are based on a scale of 0 to 100 where 0 is no effect and 100 is complete control. A dash (-) response means no test result.

[2] = tested on: Sunflower; test: Test C preemergence; conditions: Rate 125 g/ha; scale 0 to 100, 0 no effect, 100 complete control
Source text: as §1, §2

[3] = tested on: Surinam grass (Brachiaria decumbens); test: Test C preemergence; conditions: for Plant response rating (0 to 100), Surinam grass: visual evaluation after 12 to 14 days
Source text: as §1, §2

[4] = tested on: bermudagrass (Cynodon dactylon); test: Test C preemergence; conditions: for Plant response rating (0 to 100 where 0 is no effect and 100 is complete control), Bermudagrass: visual evaluation after 12 to 14 days
Source text: as §1, §2

[5] = tested on: cocklebur (Xanthium strumarium); test: Test C preemergence; conditions: for Plant response rating (0 to 100), Cocklebur: visual evaluation after 12 to 14 days
Source text: as §1, §2

[6] = tested on: common ragweed (Ambrosia elatior); test: Test C preemergence
Source text: as §1, §2

[7] = tested on: corn (Zea mays); test: Test C preemergence; conditions: for Plant response rating (0 to 100), Corn: visual evaluation after 12 to 14 days
Source text: as §1, §2

[8] = tested on: crabgrass (Digitaria sanguinalis); test: Test C preemergence; conditions: for Plant response rating (0 to 100), Crabgrass: visual evaluation after 12 to 14 days
Source text: as §1, §2

[9] = tested on: giant foxtail (Setaria faberii); test: Test C preemergence; conditions: for Plant response rating (0 to 100), Foxtail, Giant: visual evaluation after 12 to 14 days
Source text: as §1, §2

[10] = tested on: goosegrass (Eleusine indica); test: Test C preemergence; conditions: for Plant response rating (0 to 100), Goosegrass: visual evaluation after 12 to 14 days
Source text: as §1, §2

[11] = tested on: johnsongrass (Sorghum halepense); test: Test C preemergence; conditions: for Plant response rating (0 to 100), Johnsongrass: visual evaluation after 12 to 14 days
Source text: as §1, §2

[12] = tested on: kochia (Kochia scoparia); test: Test C preemergence; conditions: for Plant response rating (0 to 100), Kochia: visual evaluation after 12 to 14 days
Source text: as §1, §2

[13] = tested on: lambsquarters (Chenopodium album); test: Test C preemergence
Source text: as §1, §2

[14] = tested on: morningglory (Ipomoea hederacea); test: Test C preemergence
Source text: as §1, §2

[15] = tested on: pigweed (Amaranthus retroflexus); test: Test C preemergence
Source text: as §1, §2

[16] = tested on: soybean (Glycine max); test: Test C preemergence
Source text: as §1, §2

[17] = tested on: velvetleaf (Abutilon theophrasti); test: Test C preemergence
Source text: as §1, §2

[18] = tested on: woolly cupgrass (Eriochloa villosa); test: Test C preemergence; conditions: for Plant response rating (0 to 100), Cupgrass, Woolly: visual evaluation after 12 to 14 days
Source text: as §1, §2

[19] = tested on: yellow nutsedge (Cyperus esculentus); test: Test C preemergence
Source text: as §1, §2

[20] = tested on: barnyardgrass (Echinochloa crus-galli); test: Test C flooded paddy test; conditions: for Barnyardgrass plant response rating: Flooded Paddy, scale 0 to 100, 0 no effect, 100 complete control; for Plant response rating, Barnyardgrass: flooded paddy test, scale 0 to 100 (0 no effect, 100 complete control)
How it was run: (§3)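 Flooded paddy, 2-leaf stage at treatment. Readout: visual % control vs untreated, 0–100, at 12–14 d in greenhouse.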

[21] = tested on: duck salad (Heteranthera limosa); test: Test C flooded paddy test; conditions: for Plant response rating, Ducksalad: flooded paddy test, scale 0 to 100 (0 no effect, 100 complete control)
How it was run: as §3

[22] = tested on: smallflower flatsedge (Cyperus difformis); test: Test C flooded paddy test; conditions: for Plant response rating, Flatsedge: flooded paddy test, scale 0 to 100 (0 no effect, 100 complete control)
How it was run: as §3

[23] = Rate 125 g/ha, scale 0 to 100, 0 no effect, 100 complete control
[24] = preemergence, Rate 62 g/ha, scale 0 to 100
[25] = preemergence, Rate 500 g/ha, visual evaluation after 12 to 14 days
[26] = preemergence, Rate 250 g/ha, scale 0 to 100, 0 no effect, 100 complete control
[27] = Flooded Paddy, Rate 250 g/ha, scale 0 to 100, 0 no effect, 100 complete control

`CSc1cccc(N2CCC(n3ccc(C(C)(C)C)n3)C2=O)c1` (stereo not drawn) [Compound 86] was tested, and the “Plant response rating, Nightshade” value ([1]; Rate 62 g/ha, scale 0 to 100) was 0, the “Plant response rating, Nightshade” value [1, 23] was 0 and the “Plant response rating, Nightshade” value ([1]; Rate 250 g/ha, scale 0 to 100, 0 no effect, 100 complete control) was 0. The “Plant response rating, Sunflower” value [2] was 20, the “Plant response rating, Surinam grass” value [3, 23] was 20 and the “Plant response rating, Surinam grass” value [3, 24] was 20. For the same compound, the “Plant response rating (0 to 100), Surinam grass” value ([3]; preemergence, Rate 250 g/ha) was 20, the “Plant response rating (0 to 100), Surinam grass” value ([3]; preemergence, Rate 500 g/ha) was 30 and the “Plant response rating, Bermudagrass” value [4, 23] was 30. For the same compound, the “Plant response rating, Bermudagrass” value [4, 24] was 10, the “Plant response rating (0 to 100 where 0 is no effect and 100 is complete control), Bermudagrass” value ([4]; preemergence, Rate 250 g/ha) was 90 and the “Plant response rating (0 to 100 where 0 is no effect and 100 is complete control), Bermudagrass” value ([4]; preemergence, Rate 500 g/ha) was 100. For the same compound, the “Plant response rating, Cocklebur” value [5, 23] was 0, the “Plant response rating, Cocklebur” value [5, 24] was 0 and the “Plant response rating (0 to 100), Cocklebur” value ([5]; preemergence, Rate 250 g/ha) was 0. The “Plant response rating (0 to 100), Cocklebur” value ([5]; preemergence, Rate 500 g/ha) was 0, the “Plant response rating, Ragweed, Common” value [6, 23] was 0 and the “Plant response rating, Ragweed, Common” value [6, 24] was 0. The “Plant response rating (0 to 100), Ragweed, Common” value [6, 25] was 0, the “Plant response rating, Ragweed, Common” value [6, 26] was 0 and the “Plant response rating, Corn” value [7, 23] was 0. For the same compound, the “Plant response rating, Corn” value [7, 24] was 0, the “Plant response rating (0 to 100), Corn” value ([7]; preemergence, Rate 250 g/ha) was 0 and the “Plant response rating (0 to 100), Corn” value ([7]; preemergence, Rate 500 g/ha) was 30. For the same compound, the “Plant response rating, Crabgrass” value [8, 23] was 90, the “Plant response rating, Crabgrass” value [8, 24] was 0 and the “Plant response rating (0 to 100), Crabgrass” value ([8]; preemergence, Rate 250 g/ha) was 100. For the same compound, the “Plant response rating (0 to 100), Crabgrass” value ([8]; preemergence, Rate 500 g/ha) was 100, the “Plant response rating, Foxtail, Giant” value [9, 23] was 0 and the “Plant response rating, Foxtail, Giant” value [9, 24] was 0. For the same compound, the “Plant response rating (0 to 100), Foxtail, Giant” value ([9]; preemergence, Rate 250 g/ha) was 80, the “Plant response rating (0 to 100), Foxtail, Giant” value ([9]; preemergence, Rate 500 g/ha) was 100 and the “Plant response rating, Goosegrass” value [10, 23] was 90. The “Plant response rating, Goosegrass” value [10, 24] was 100, the “Plant response rating (0 to 100), Goosegrass” value ([10]; preemergence, Rate 250 g/ha) was 100 and the “Plant response rating (0 to 100), Goosegrass” value ([10]; preemergence, Rate 500 g/ha) was 100. The “Plant response rating, Johnsongrass” value [11, 23] was 20, the “Plant response rating, Johnsongrass” value [11, 24] was 20 and the “Plant response rating (0 to 100), Johnsongrass” value ([11]; preemergence, Rate 250 g/ha) was 40. For the same compound, the “Plant response rating (0 to 100), Johnsongrass” value ([11]; preemergence, Rate 500 g/ha) was 50, the “Plant response rating, Kochia” value [12, 23] was 90 and the “Plant response rating, Kochia” value [12, 24] was 70. For the same compound, the “Plant response rating (0 to 100), Kochia” value ([12]; preemergence, Rate 250 g/ha) was 100, the “Plant response rating (0 to 100), Kochia” value ([12]; preemergence, Rate 500 g/ha) was 100 and the “Plant response rating, Lambsquarters” value [13, 23] was 100. For the same compound, the “Plant response rating, Lambsquarters” value [13, 24] was 100, the “Plant response rating (0 to 100), Lambsquarters” value [13, 25] was 100 and the “Plant response rating, Lambsquarters” value [13, 26] was 100. The “Plant response rating, Morningglory” value [14, 23] was 0, the “Plant response rating, Morningglory” value [14, 24] was 0 and the “Plant response rating, Morningglory” value [14, 26] was 0. The “Plant response rating, Pigweed” value [15, 23] was 100, the “Plant response rating, Pigweed” value [15, 24] was 70 and the “Plant response rating (0 to 100), Pigweed” value [15, 25] was 100. For the same compound, the “Plant response rating, Pigweed” value [15, 26] was 0, the “Plant response rating, Soybean” value [16, 23] was 0 and the “Plant response rating, Soybean” value [16, 24] was 0. For the same compound, the “Plant response rating (0 to 100), Soybean” value [16, 25] was 0, the “Plant response rating, Soybean” value [16, 26] was 0 and the “Plant response rating, Velvetleaf” value [17, 23] was 0. The “Plant response rating, Velvetleaf” value [17, 24] was 0, the “Plant response rating (0 to 100), Velvetleaf” value [17, 25] was 70 and the “Plant response rating, Velvetleaf” value [17, 26] was 0. The “Plant response rating, Cupgrass, Woolly” value [18, 23] was 30, the “Plant response rating, Cupgrass, Woolly” value [18, 24] was 30 and the “Plant response rating (0 to 100), Cupgrass, Woolly” value ([18]; preemergence, Rate 250 g/ha) was 90. For the same compound, the “Plant response rating (0 to 100), Cupgrass, Woolly” value ([18]; preemergence, Rate 500 g/ha) was 100, the “Plant response rating, Nutsedge” value [19, 23] was 0 and the “Plant response rating, Nutsedge” value [19, 24] was 0. For the same compound, the “Plant response rating (0 to 100), Nutsedge” value [19, 25] was 0, the “Plant response rating, Nutsedge” value [19, 26] was 0 and the “Barnyardgrass plant response rating” value ([20]; Rate 250 g/ha) was 100. The “Barnyardgrass plant response rating” value ([20]; Rate 500 g/ha) was 100, the “Plant response rating, Barnyardgrass” value ([20]; Rate 62 g/ha) was 0 and the “Plant response rating, Barnyardgrass” value ([20]; Rate 125 g/ha) was 30. The “Ducksalad plant response rating” value [21, 27] was 100, the “Plant response rating, Ducksalad” value ([21]; Rate 62 g/ha) was 0 and the “Plant response rating, Ducksalad” value ([21]; Rate 125 g/ha) was 0. The “Flatsedge plant response rating” value [22, 27] was 70, the “Plant response rating, Flatsedge” value ([22]; Rate 62 g/ha) was 0 and the “Plant response rating, Flatsedge” value ([22]; Rate 125 g/ha) was 0.
